From PubChem BioAssay (NCI)
Where “and” joins values, the source holds several entries; their conditions need not be identical. Identical values can stand only once.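 Method: 48-hour compound exposure of cells in 96-well plates, five concentrations, linear interpolation of endpoints. GI50: concentration for 50% inhibition of growth. Definition used: TGI = concentration required for complete inhibition of growth.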

Legend:
Assay in all cases: inhibition of tumour cell growth, NCI panel, 48 h
ACHN renal = tested on: ACHN renal
HCT-116 colon = tested on: HCT-116 colon
LOX IMVI melanoma = tested on: LOX IMVI melanoma
MALME-3M melanoma = tested on: MALME-3M melanoma
SF-268 CNS = tested on: SF-268 CNS
SF-295 CNS = tested on: SF-295 CNS
SK-OV-3 ovarian = tested on: SK-OV-3 ovarian
U251 CNS = tested on: U251 CNS
HL-60(TB) leukemia = tested on: HL-60(TB) leukemia
T-47D breast = tested on: T-47D breast

SMILES	TGI (ACHN renal)	TGI (HCT-116 colon)	TGI (LOX IMVI melanoma)	TGI (MALME-3M melanoma)	TGI (SF-268 CNS)	TGI (SF-295 CNS)	TGI (SK-OV-3 ovarian)	TGI (U251 CNS)	TGI (HL-60(TB) leukemia)	GI50 (HCT-116 colon)	GI50 (HL-60(TB) leukemia)	GI50 (LOX IMVI melanoma)	GI50 (SF-268 CNS)	GI50 (SF-295 CNS)	GI50 (SK-OV-3 ovarian)	GI50 (ACHN renal)	GI50 (MALME-3M melanoma)	GI50 (T-47D breast)	TGI (T-47D breast)	GI50 (U251 CNS)
CC1=NNC(=NCCN(C)C)C/C1=C/c1ccccc1Cl	> 100 µM	> 100 µM	> 100 µM	> 100 µM	> 100 µM	> 100 µM	> 100 µM	> 100 µM												
COC(=O)C1=C(OC)c2cc3c(cc2C(c2cc(OC)c(OC)c(OC)c2)C1C(=O)OC)OCO3 (configuration not stated)	> 100 µM	> 100 µM	> 100 µM	> 100 µM	> 100 µM	> 100 µM	> 100 µM	> 100 µM	> 100 µM											
O=C1C2c3[nH]c4ccccc4c3[C@@H]3CCCCCCCCCCC3C2C(=O)N1c1ccccc1 (some centres not stated)	> 100 µM		43.3 µM		48.1 µM	42.1 µM	23 µM	37.8 µM	30.2 µM											
Cn1cnc([N+](=O)[O-])c1Sc1ccccn1	> 100 µM	> 100 µM	> 100 µM	> 100 µM	> 100 µM	> 100 µM	> 100 µM	> 100 µM												
Cc1c[nH]c2c1C13CC1CN(C(=O)c1cc4cc(NC(=O)c5cc6ccccc6o5)ccc4[nH]1)C3=CC2=O (configuration not stated)		11.2 nM and 0.117 µg/mL	< 0.001 µM	< 0.001 µM	< 0.001 µM	< 0.001 µM	218 ng/mL	< 0.001 µM		> 1.17 ng/mL	> 1.17 ng/mL	> 1.17 ng/mL	> 1.17 ng/mL	> 1.17 ng/mL	> 1.17 ng/mL					
COc1ccc2cccc(C(=O)c3ccc(C)c4c3CCC4)c2c1	> 100 µM	> 100 µM	38.8 µM	72.8 µM	> 100 µM	> 100 µM	> 100 µM	> 100 µM	44.7 µM											
CCN(CC)CCN1C(=O)c2c(c(C)c3c(oc4cc(O)ccc43)c2C)C1=O	2.89 µM		3.18 µM	2.97 µM	3.78 µM	2.98 µM	3.36 µM					1.7 µM	1.74 µM	1.56 µM	1.83 µM	1.56 µM	1.56 µM	2.28 µM	6.44 µM	
CC#C[C@@]1(O)CCCC[C@@H]1O	> 100 µM	> 100 µM	> 100 µM	> 100 µM	> 100 µM	> 100 µM	> 100 µM	> 100 µM	> 100 µM											
Cn1c2c([N+](=O)[O-])[se]nc2c(=O)n1-c1ccc([N+](=O)[O-])cc1	3.71 µM	3.39 µM	6.88 µM	3.23 µM	4.77 µM	11.6 µM	6.1 µM	7.04 µM	> 23.1 µM											
C/C1=C\[C@H](C)C[C@H](C)OC(=O)C[C@H](c2ccc(O)cc2)NC(=O)[C@@H](Cc2c(Br)[nH]c3ccccc23)N(C)C(=O)[C@H](C)NC(=O)[C@@H](C)C1	0.0894 µM	0.705 µM and 5.15 µM	0.317 µM and 0.0533 µM	0.404 µM and 0.196 µM	0.443 µM and 0.166 µM	0.699 µM and 0.18 µM	0.579 µM and 0.0749 µM	0.859 µM and 0.74 µM	0.384 µM and 0.175 µM	0.0329 µM	0.0176 µM	0.0135 µM	0.0352 µM	0.0349 µM	0.0267 µM	0.0228 µM	0.032 µM			0.0328 µM
O=C(c1cc(O)ccc1O)c1ccccc1C(Cl)(Cl)Cl	> 100 µM	> 100 µM		> 100 µM	> 100 µM	> 100 µM	> 100 µM	> 100 µM	97.3 µM											
CCOC(=O)C1N(S(=O)(=O)c2ccc(C)cc2)CCC12c1ccccc1N(C(C)=O)C2C(/C=C/C(=O)OC)=C/C(=O)OC (configuration not stated)	> 100 µM	> 100 µM	> 100 µM	> 100 µM	> 100 µM	> 100 µM	> 100 µM	> 100 µM	> 100 µM											
NCCCCCS(=O)(=O)O	> 100 µM	> 100 µM	> 100 µM	> 100 µM	> 100 µM		> 100 µM	> 100 µM	> 100 µM											
O=c1[nH]cc(CS(=O)(=O)Cc2c[nH]c(=O)[nH]c2=O)c(=O)[nH]1	> 100 µM	> 100 µM	> 100 µM	> 100 µM	> 100 µM	> 100 µM		> 100 µM											> 100 µM	
O=NC1c2cccc3cccc(c23)C1N=O (configuration not stated)	3.9 µM	3.81 µM	5.6 µM		26.3 µM	24.8 µM	43.7 µM	28.1 µM	6.61 µM										> 100 µM	
C/C(=C\c1ccc(Cl)cc1)C(C)(C)C(=O)O	> 100 µM	> 100 µM		> 100 µM	> 100 µM	> 100 µM	> 100 µM	> 100 µM	> 100 µM										> 100 µM	
COC(=O)C(=O)C1(CCC(C)=O)c2ccccc2-c2ccccc21	> 100 µM	> 100 µM	> 100 µM	> 100 µM	> 100 µM	> 100 µM	> 100 µM	> 100 µM	> 100 µM											
N/C(=N\NS(=O)(=O)c1ccccc1)Oc1ccc(Cl)cc1	> 100 µM	> 100 µM	> 100 µM	> 100 µM	> 100 µM	> 100 µM	> 100 µM	> 100 µM	60.6 µM											
CCOC(=O)C(C)(C)Oc1ccc2c(=O)cc(-c3ccccc3)oc2c1	> 100 µM	31.1 µM	37.1 µM	37.6 µM	56.3 µM	75 µM	> 100 µM	44.9 µM	32.8 µM											
C[Si](C)(C)/C=C/CCC(C=O)(CCCl)c1ccccc1 (configuration not stated)	73.2 µM	32.3 µM	36.2 µM	52.7 µM	> 100 µM	57.2 µM	> 100 µM	33 µM	> 100 µM											
CCOC1OCCCC1Br (configuration not stated)	> 100 µM	> 100 µM	> 100 µM	> 100 µM	> 100 µM	> 100 µM	> 100 µM												> 100 µM	
Cc1cc(NS(=O)(=O)c2ccc(Nc3c4ccccc4nc4c(C(=O)Nc5ccc(S(=O)(=O)N=C(N)N)cc5)cccc34)cc2)no1	> 100 µM	> 100 µM	> 100 µM	> 100 µM	> 100 µM	> 100 µM	> 100 µM	> 100 µM												
